This test has as its system fucosyl transferase. Briefly: Modulation of glycosylation PTMs of trastuzumab biosimilar in CHO cells by FTI (Methods 1 and 2), 2AB glycan analysis. Type of test: cell-based, Chinese Hamster. The protocol: To obtain a recipe for production of a biosimilar with a similar glycosylation pattern to the original Herceptin®, CHO cells engineered to express the recombinant protein with an amino acid sequence identical to trastuzumab were first grown in the growth media without any inhibitors to establish a Baseline. The glycan species were analyzed using 2AB glycan method. It was observed that Peak 2 (G0) and Peak 6 (G1), and Peak 7 (mannose-5 and G1′) PTMs were lower for the biosimilar than their target PTMs.
G0, G1 and G1′ PTMs are non-fucosylated PTMs and are controlled by a host protein called fucosyl transferase and the mannose-5 PTM is controlled by the host protein known as α-mannosidase I. Fucosyl transferase can be inhibited by a variety of fucosyltransferase inhibitors shown in FIG. 2, α-mannosidase I can be inhibited by kifunensine.
Briefly to obtain trastuzumab with PTMs in the target range, cells were placed in growth media and treated with 2F-Peracetyl-Fucose (FTI) on day 7 at different concentrations (20 μM, 10 μM, 5 μM, 1 μM, 0.1 μM) to identify optimal drug concentration. On day 12 cells were harvested and the trastuzumab biosimilar isolated. […] FTI concentrations used to reach target PTMs are cell specific so it is expected that different concentrations of the FTI or other modulators would be required when a starting cell line is different from the one described in this example.
Different treatment methods such as Method 2 can be used to obtain target PTMs. For example, FTI can be added on a daily basis starting on day 5 (Table 3, Method 2) rather than on Day 7.

The mark [1] stands for this setting: Method 1: 10 μM FTI on Day 7, trastuzumab biosimilar from CHO cells.
The mark [2] stands for this setting: Method 2: […]-[…] FTI every day starting at day 5, trastuzumab biosimilar from CHO cells.

On to `CC(=O)OC1O[C@@H](C)[C@@H](OC(C)=O)[C@@H](OC(C)=O)[C@@H]1F` (stereo partly shown) [FTI, 2F-Peracetyl-Fucose], for which, for the setting “10 μM FTI on day 7, harvest day 12”, the “G0, G1 and G1′ PTM levels versus target PTM range” value was “matched the target PTM range”. For the same compound, the “G0, G1 and G1′ PTM levels versus target PTMs” value (20 μM FTI on day 7, harvest day 12) is “increase of G0, G1 and G1′ PTMs above that of target PTMs”. Also, where the note is “FTI at concentrations lower than 8 μM, day 7”, the “PTMs versus target range” value is given as “outside the target range”. Under setting [1], the “Glycan Species Peak 1” value is on record as 1.5%, the “Glycan Species Peak 2-G0” value amounted to 4%, the “Glycan Species Peak 3” value was determined as 1.5% and the “Glycan Species Peak 4-G0F” value turned out to be 44%. Under setting [1], the “Glycan Species Peak 5” value is on record as 0.8%; the “Glycan Species Peak 6-G1” value turned out to be 1.8%; the “Glycan Species Peak 7- G1F/mannose 5” value amounted to 1.2%; the “Glycan Species Peak 8- (1, 6)G1F” value stood at 26%. In addition, under setting [1], the “Glycan Species Peak 9 (1, 3)G1F” value is given as 11%; the “Glycan Species Peak 10 G2F” value is listed as 6.5%; the “Glycan Species Peak 11” value turned out to be 0.2%; the “Glycan Species Peak 12” value is given as 0.25%. Moreover, under setting [1], the “Glycan Species Peak 13” value was 0.2%, the “Glycan Species Peak 14” value stood at 0.2% and the “Glycan Species Peak 15” value turned out to be 0.2%. Under setting [2], the “Glycan Species Peak 4-G0F” value turned out to be 44%; the “Glycan Species Peak 8- (1, 6)G1F” value is recorded as 26%; the “Glycan Species Peak 9 (1, 3)G1F” value stood at 11%; the “Glycan Species Peak 10 G2F” value worked out at 6.5%.
